Structures are written as SMILES. Starred links: 1 amine or outer side, 2 acyl side, 3 side chain; linkers in the order of their positions; H or OH if unused. Non-standard residues stand in square brackets, D forms with d. Residues, ends and D or L forms follow the SMILES beside them. Groups on a side chain read outwards from the residue. *: point of attachment. C18 diacid = O=C(O)CCCCCCCCCCCCCCCCC(=O)*; γGlu = O=C(O)[C@H](CCC(=O)[*:2])N[*:1]; αMeF = C[C@](N)(Cc1ccccc1)C(=O)O; AEEA = NCCOCCOCC(=O)O; Aib = CC(C)(N)C(=O)O

This note sets out measurements from patent US20250353891A1 (MEDIMMUNE LIMITED, priority 2022, published 2025).

Assay [1] has as its target human GLP-1 receptor (hGLP-1R) (Homo sapiens, UniProt P43220). Briefly: cAMP production (HTRF) in CHO cells expressing hGLP-1R. To be noted: for EC50: Table 6, peptides modified at position 17, cAMP in CHO hGLP-1R cells, geometric mean, read-out: hGLP-1R EC50; for % Relative Potency Ratio: Table 6, % GLP-1R activity relative to GLP-1 / % GlucR activity relative to glucagon. Also on record: expressed in transfected cells. Format: cell-based. The gist of the method: (§1)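 Potency values represent EC50 from 4-parameter logistic curves of HTRF % Delta F signal. Receptor-expressing CHO cells (hGCGR 2×10^5 cells/mL, hGLP-1R 1×10^5 cells/mL) were exposed for 30 min at room temperature before two-step cAMP detection.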
(In general: Changes in cAMP serve as a functional read-out for many G protein-coupled receptors.)

For assay [2], the target named is human glucagon receptor (hGCGR) (Homo sapiens, UniProt P47871). Briefly: cAMP production (HTRF) in CHO cells expressing hGCGR. Format: cell-based. Set-up: expressed in transfected cells. The settings on record: Table 6, peptides modified at position 17; cAMP in CHO hGCGR cells; geometric mean; read-out: hGluc-R EC50. The gist of the method: as §1
Sequence of human glucagon receptor (hGCGR) (P47871 26-477): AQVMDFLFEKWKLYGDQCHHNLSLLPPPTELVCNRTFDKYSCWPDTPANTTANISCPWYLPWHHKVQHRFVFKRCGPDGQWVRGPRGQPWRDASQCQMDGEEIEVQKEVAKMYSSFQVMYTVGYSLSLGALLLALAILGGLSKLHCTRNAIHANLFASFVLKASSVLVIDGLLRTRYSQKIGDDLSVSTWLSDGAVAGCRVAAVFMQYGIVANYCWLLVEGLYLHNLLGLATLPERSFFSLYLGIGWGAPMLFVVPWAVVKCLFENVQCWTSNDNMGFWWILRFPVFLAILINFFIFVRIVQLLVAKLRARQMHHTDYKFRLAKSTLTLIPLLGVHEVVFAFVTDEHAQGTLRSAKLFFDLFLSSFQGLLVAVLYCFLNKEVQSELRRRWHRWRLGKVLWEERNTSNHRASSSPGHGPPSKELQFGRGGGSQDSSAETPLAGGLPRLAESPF

Sequence of human GLP-1 receptor (hGLP-1R) (P43220 24-463): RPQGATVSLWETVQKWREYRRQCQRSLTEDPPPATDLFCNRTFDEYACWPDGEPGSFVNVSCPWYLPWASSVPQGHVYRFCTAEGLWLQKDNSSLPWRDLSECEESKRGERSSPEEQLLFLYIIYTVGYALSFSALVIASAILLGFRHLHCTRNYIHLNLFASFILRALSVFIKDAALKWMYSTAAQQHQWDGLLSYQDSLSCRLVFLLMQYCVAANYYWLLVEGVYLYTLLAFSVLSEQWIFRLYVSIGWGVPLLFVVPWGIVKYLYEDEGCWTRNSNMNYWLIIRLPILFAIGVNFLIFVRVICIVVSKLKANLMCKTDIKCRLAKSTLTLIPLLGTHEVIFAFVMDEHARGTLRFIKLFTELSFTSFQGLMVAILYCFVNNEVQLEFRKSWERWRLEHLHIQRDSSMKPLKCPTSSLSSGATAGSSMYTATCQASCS

For `CC(C)C[C@H](NC(=O)[C@H](Cc1c[nH]c2ccccc12)NC(=O)[C@H](CCCNC(=N)N)NC(=O)[C@@H](NC(=O)[C@H](Cc1ccccc1)NC(=O)[C@H](CC(=O)O)NC(=O)[C@H](CCC(N)=O)NC(=O)[C@H](C)NC(=O)[C@H](CCCNC(=N)N)NC(=O)[C@H](CCCCNC(=O)CC[C@H](NC(=O)CC[C@H](NC(=O)COCCOCCNC(=O)COCCOCCNC(=O)CC[C@H](NC(=O)CC[C@H](NC(=O)CCCCCCCCCCCCCCCCC(=O)O)C(=O)O)C(=O)O)C(=O)O)C(=O)O)NC(=O)[C@H](CO)NC(=O)[C@H](CC(=O)O)NC(=O)[C@H](CC(C)C)NC(=O)[C@](C)(Cc1ccccc1)NC(=O)[C@H](CCCCN)NC(=O)[C@H](CO)NC(=O)[C@@H](NC(=O)[C@H](CC(=O)O)NC(=O)[C@H](CO)NC(=O)[C@@H](NC(=O)[C@H](Cc1ccccc1)NC(=O)[C@@H](NC(=O)CNC(=O)[C@H](CCC(N)=O)NC(=O)C(C)(C)NC(=O)[C@@H](N)Cc1c[nH]cn1)[C@@H](C)O)[C@@H](C)O)C(C)C)C(C)C)C(=O)N[C@@H](CC(C)C)C(=O)N[C@@H](CCC(=O)O)C(=O)NC(C)(C)C(=O)NCC(=O)O` [Peptide 138] (H-H[Aib]QGTFTSDVSK[αMeF]LDSK([γGlu-γGlu-AEEA-AEEA-γGlu-γGlu-C18 diacid])RAQDFVRWLLE[Aib]G-OH; N-terminus assumed), the values for the EC50 in assay [1] and in assay [2] were 0.104 nM and 0.184 nM, respectively. The “% Relative Potency Ratio” value in assay [1] was found to be 3.5.

Turning to `CC(C)C[C@H](NC(=O)[C@H](Cc1c[nH]c2ccccc12)NC(=O)[C@H](CCCNC(=N)N)NC(=O)[C@@H](NC(=O)[C@H](Cc1ccccc1)NC(=O)[C@H](CC(=O)O)NC(=O)[C@H](CCC(N)=O)NC(=O)[C@H](C)NC(=O)[C@H](CCCNC(=N)N)NC(=O)[C@H](CCCCNC(=O)CC[C@H](NC(=O)CC[C@H](NC(=O)COCCOCCNC(=O)COCCOCCNC(=O)CC[C@H](NC(=O)CC[C@H](NC(=O)CCCCCCCCCCCCCCCCCCC(=O)O)C(=O)O)C(=O)O)C(=O)O)C(=O)O)NC(=O)[C@H](CO)NC(=O)[C@H](CC(=O)O)NC(=O)[C@H](CC(C)C)NC(=O)[C@](C)(Cc1ccccc1)NC(=O)[C@H](CCCCN)NC(=O)[C@H](CO)NC(=O)[C@@H](NC(=O)[C@H](CC(=O)O)NC(=O)[C@H](CO)NC(=O)[C@@H](NC(=O)[C@H](Cc1ccccc1)NC(=O)[C@@H](NC(=O)CNC(=O)[C@H](CCC(N)=O)NC(=O)C(C)(C)NC(=O)[C@@H](N)Cc1c[nH]cn1)[C@@H](C)O)[C@@H](C)O)C(C)C)C(C)C)C(=O)N[C@@H](CC(C)C)C(=O)N[C@@H](CCC(=O)O)C(=O)NC(C)(C)C(=O)NCC(=O)O` [Peptide 139], in assay [1], the EC50 (commonly the concentration needed to bring the measured effect to its halfway point) turned out to be 0.63 nM and the “% Relative Potency Ratio” value came out at 3.1. Moreover, in assay [2], the EC50 came to 0.984 nM.

On to `CC(C)C[C@H](NC(=O)[C@H](Cc1c[nH]c2ccccc12)NC(=O)[C@H](C)NC(=O)[C@@H](NC(=O)[C@H](Cc1ccccc1)NC(=O)[C@H](CC(=O)O)NC(=O)[C@H](CCC(N)=O)NC(=O)[C@H](C)NC(=O)[C@H](CCCNC(=N)N)NC(=O)[C@H](CCCCNC(=O)COCCOCCNC(=O)COCCOCCNC(=O)CC[C@H](NC(=O)CCCCCCCCCCCCCCCCC(=O)O)C(=O)O)NC(=O)[C@H](CO)NC(=O)[C@H](CC(=O)O)NC(=O)[C@H](CC(C)C)NC(=O)[C@](C)(Cc1ccccc1)NC(=O)[C@H](CCCCN)NC(=O)[C@H](CO)NC(=O)[C@@H](NC(=O)[C@H](CC(=O)O)NC(=O)[C@H](CO)NC(=O)[C@@H](NC(=O)[C@H](Cc1ccccc1)NC(=O)[C@@H](NC(=O)CNC(=O)[C@H](CCC(N)=O)NC(=O)C(C)(C)NC(=O)[C@@H](N)Cc1c[nH]cn1)[C@@H](C)O)[C@@H](C)O)C(C)C)C(C)C)C(=O)N[C@@H](CC(C)C)C(=O)N[C@@H](CCC(=O)O)C(=O)NC(C)(C)C(=O)NCC(=O)O` [Peptide 141] (H-H[Aib]QGTFTSDVSK[αMeF]LDSK([AEEA-AEEA-γGlu-C18 diacid])RAQDFVAWLLE[Aib]G-OH; N-terminus assumed), for which, in assay [1], the concentration giving a half-maximal response (EC50) came out at 0.264 nM and the “% Relative Potency Ratio” value was found to be 2.9. For the same molecule, the EC50 in assay [2] amounted to 0.392 nM.

With `CC(C)C[C@H](NC(=O)[C@H](Cc1c[nH]c2ccccc12)NC(=O)[C@H](C)NC(=O)[C@@H](NC(=O)[C@H](Cc1ccccc1)NC(=O)[C@H](CC(=O)O)NC(=O)[C@H](CCCNC(=N)N)NC(=O)[C@H](C)NC(=O)[C@H](CCCNC(=N)N)NC(=O)[C@H](CCCCNC(=O)COCCOCCNC(=O)COCCOCCNC(=O)CC[C@H](NC(=O)CCCCCCCCCCCCCCCCC(=O)O)C(=O)O)NC(=O)[C@H](CO)NC(=O)[C@H](CC(=O)O)NC(=O)[C@H](CC(C)C)NC(=O)[C@](C)(Cc1ccccc1)NC(=O)[C@H](CCCCN)NC(=O)[C@H](CO)NC(=O)[C@@H](NC(=O)[C@H](CC(=O)O)NC(=O)[C@H](CO)NC(=O)[C@@H](NC(=O)[C@H](Cc1ccccc1)NC(=O)[C@@H](NC(=O)CNC(=O)[C@H](CCC(N)=O)NC(=O)C(C)(C)NC(=O)[C@@H](N)Cc1c[nH]cn1)[C@@H](C)O)[C@@H](C)O)C(C)C)C(C)C)C(=O)N[C@@H](CC(C)C)C(=O)N[C@@H](CCC(=O)O)C(=O)NC(C)(C)C(=O)NCC(=O)O` [Peptide 142] (H-H[Aib]QGTFTSDVSK[αMeF]LDSK([AEEA-AEEA-γGlu-C18 diacid])RARDFVAWLLE[Aib]G-OH; N-terminus assumed), the EC50 in assay [1] was 0.0594 nM; in assay [2], 0.108 nM. In assay [1], the “% Relative Potency Ratio” value came to 3.6.

Regarding `CC(C)C[C@H](NC(=O)[C@H](Cc1c[nH]c2ccccc12)NC(=O)[C@H](CCC(N)=O)NC(=O)[C@@H](NC(=O)[C@H](Cc1ccccc1)NC(=O)[C@H](CC(=O)O)NC(=O)[C@H](CCCNC(=N)N)NC(=O)[C@H](C)NC(=O)[C@H](CCCNC(=N)N)NC(=O)[C@H](CCCCNC(=O)COCCOCCNC(=O)COCCOCCNC(=O)CC[C@H](NC(=O)CCCCCCCCCCCCCCCCC(=O)O)C(=O)O)NC(=O)[C@H](CO)NC(=O)[C@H](CC(=O)O)NC(=O)[C@H](CC(C)C)NC(=O)[C@](C)(Cc1ccccc1)NC(=O)[C@H](CCCCN)NC(=O)[C@H](CO)NC(=O)[C@@H](NC(=O)[C@H](CC(=O)O)NC(=O)[C@H](CO)NC(=O)[C@@H](NC(=O)[C@H](Cc1ccccc1)NC(=O)[C@@H](NC(=O)CNC(=O)[C@H](CCC(N)=O)NC(=O)C(C)(C)NC(=O)[C@@H](N)Cc1c[nH]cn1)[C@@H](C)O)[C@@H](C)O)C(C)C)C(C)C)C(=O)N[C@@H](CC(C)C)C(=O)N[C@@H](CCC(=O)O)C(=O)NC(C)(C)C(=O)NCC(=O)O` [Peptide 143] (H-H[Aib]QGTFTSDVSK[αMeF]LDSK([AEEA-AEEA-γGlu-C18 diacid])RARDFVQWLLE[Aib]G-OH; N-terminus assumed), in assay [1], the EC50 was 0.0191 nM and the “% Relative Potency Ratio” value was 3.4. Moreover, the EC50 in assay [2] stood at 0.0326 nM.

In the case of `CC[C@H](C)[C@H](NC(=O)CNC(=O)[C@H](CCCNC(=N)N)NC(=O)[C@H](CO)NC(=O)[C@H](C)NC(=O)[C@H](CC(C)C)NC(=O)[C@H](Cc1c[nH]c2ccccc12)NC(=O)[C@H](CCCNC(=N)N)NC(=O)[C@@H](NC(=O)[C@H](Cc1ccccc1)NC(=O)[C@H](CC(=O)O)NC(=O)[C@H](CCC(N)=O)NC(=O)[C@H](C)NC(=O)[C@H](CCCNC(=N)N)NC(=O)[C@H](CCCCNC(=O)COCCOCCNC(=O)COCCOCCNC(=O)CC[C@H](NC(=O)CCCCCCCCCCCCCCCCC(=O)O)C(=O)O)NC(=O)[C@H](CO)NC(=O)[C@H](CC(=O)O)NC(=O)[C@H](CC(C)C)NC(=O)[C@](C)(Cc1ccccc1)NC(=O)[C@H](CCCCN)NC(=O)[C@H](CO)NC(=O)[C@@H](NC(=O)[C@H](CC(=O)O)NC(=O)[C@H](CO)NC(=O)[C@@H](NC(=O)[C@H](Cc1ccccc1)NC(=O)[C@@H](NC(=O)CNC(=O)[C@H](CCC(N)=O)NC(=O)C(C)(C)NC(=O)[C@@H](N)Cc1c[nH]cn1)[C@@H](C)O)[C@@H](C)O)C(C)C)C(C)C)C(=O)O` [Peptide 145] (H-H[Aib]QGTFTSDVSK[αMeF]LDSK([AEEA-AEEA-γGlu-C18 diacid])RAQDFVRWLASRGI-OH), in assay [1], the EC50 stood at 0.0226 nM and the “% Relative Potency Ratio” value stood at 401.2. Besides, the EC50 in assay [2] was 4.59 nM.

Turning to `CC(C)C[C@H](NC(=O)[C@H](Cc1c[nH]c2ccccc12)NC(=O)[C@H](CCCNC(=N)N)NC(=O)[C@@H](NC(=O)[C@H](Cc1ccccc1)NC(=O)[C@H](CC(=O)O)NC(=O)[C@H](CCC(N)=O)NC(=O)[C@H](C)NC(=O)[C@H](CCCNC(=N)N)NC(=O)[C@H](CCCCNC(=O)COCCOCCNC(=O)COCCOCCNC(=O)CC[C@H](NC(=O)CCCCCCCCCCCCCCCCC(=O)O)C(=O)O)NC(=O)[C@H](CO)NC(=O)[C@H](CC(=O)O)NC(=O)[C@H](CC(C)C)NC(=O)[C@](C)(Cc1ccccc1)NC(=O)[C@H](CCCCN)NC(=O)[C@H](CO)NC(=O)[C@@H](NC(=O)[C@H](CC(=O)O)NC(=O)[C@H](CO)NC(=O)[C@@H](NC(=O)[C@H](Cc1ccccc1)NC(=O)[C@@H](NC(=O)CNC(=O)[C@H](CCC(N)=O)NC(=O)C(C)(C)NC(=O)[C@@H](N)Cc1c[nH]cn1)[C@@H](C)O)[C@@H](C)O)C(C)C)C(C)C)C(=O)N[C@@H](C)C(=O)N[C@@H](CO)C(=O)N[C@@H](CCCNC(=N)N)C(=O)O` [Peptide 146] (H-H[Aib]QGTFTSDVSK[αMeF]LDSK([AEEA-AEEA-γGlu-C18 diacid])RAQDFVRWLASR-OH; N-terminus assumed), in assay [1], the EC50 was 0.0246 nM and the “% Relative Potency Ratio” value is 131.3. Further, the EC50 in assay [2] is 1.63 nM.
